Experimental data as given in US20060269950A1, “Method of identifying compounds that modulate interaction of androgen receptor with beta-catenin” (Wyeth, priority 2005, published 2006).

Tests used:
[1] = target: T1, interaction between AR and β-catenin (Mus musculus, UniProt P19091); assay: Co-immunoprecipitation of β-catenin followed by Western analysis for AR in L929 cells; settings: 300 nM (30-fold excess) in presence of 10 nM DHT, 17 hours
T1 sequence (P19091 1-899): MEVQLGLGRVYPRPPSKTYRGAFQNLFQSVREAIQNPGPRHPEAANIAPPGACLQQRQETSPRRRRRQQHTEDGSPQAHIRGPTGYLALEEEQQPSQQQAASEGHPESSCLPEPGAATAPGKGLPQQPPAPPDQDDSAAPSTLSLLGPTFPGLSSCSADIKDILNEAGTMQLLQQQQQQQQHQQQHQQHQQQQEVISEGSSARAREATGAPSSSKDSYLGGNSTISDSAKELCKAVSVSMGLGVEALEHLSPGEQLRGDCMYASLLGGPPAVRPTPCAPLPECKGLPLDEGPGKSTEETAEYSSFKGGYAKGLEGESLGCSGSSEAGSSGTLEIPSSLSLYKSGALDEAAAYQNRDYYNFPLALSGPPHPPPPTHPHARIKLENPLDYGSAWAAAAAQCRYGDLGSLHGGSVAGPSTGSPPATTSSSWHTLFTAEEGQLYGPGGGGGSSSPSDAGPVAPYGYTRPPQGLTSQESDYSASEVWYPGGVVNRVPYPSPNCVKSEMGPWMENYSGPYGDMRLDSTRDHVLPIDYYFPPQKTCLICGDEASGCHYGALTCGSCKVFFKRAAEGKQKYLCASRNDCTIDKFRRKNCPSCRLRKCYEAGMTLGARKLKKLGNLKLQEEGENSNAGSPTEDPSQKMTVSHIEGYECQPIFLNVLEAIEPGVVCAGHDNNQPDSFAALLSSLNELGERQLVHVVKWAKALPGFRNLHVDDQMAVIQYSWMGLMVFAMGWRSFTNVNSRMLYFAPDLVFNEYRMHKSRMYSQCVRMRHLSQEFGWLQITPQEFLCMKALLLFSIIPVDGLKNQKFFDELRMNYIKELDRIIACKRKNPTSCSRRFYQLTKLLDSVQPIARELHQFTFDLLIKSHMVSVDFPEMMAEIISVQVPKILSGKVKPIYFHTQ
Protocol: Cell lysates were harvested, precleared with protein A/G sepharose, and β-catenin was immunoprecipitated using a goat polyclonal IgG against β-catenin conjugated to agarose (Santa Cruz Biotechnology). The immunoprecipitates were analyzed by polyacrylamide gel electrophoresis followed by Western analysis for AR and β-catenin (β-cat) as indicated using antibodies from Santa Cruz (FIG. 2).

[2] = target: T2, interaction between AR and β-catenin (Homo sapiens, UniProt P10275); assay: One-hybrid GAL4-β-catenin/AR luciferase reporter assay in CV-1 cells; format: cell-based, African green monkey; settings: AR expressing CV-1 cells, 10 nM, 18 hours
T2 construct: The AR expression vector is human full length AR cDNA in pcDNA3; expressed in transfected cells; host or cells: CV-1 cells
T2 sequence (P10275 1-920): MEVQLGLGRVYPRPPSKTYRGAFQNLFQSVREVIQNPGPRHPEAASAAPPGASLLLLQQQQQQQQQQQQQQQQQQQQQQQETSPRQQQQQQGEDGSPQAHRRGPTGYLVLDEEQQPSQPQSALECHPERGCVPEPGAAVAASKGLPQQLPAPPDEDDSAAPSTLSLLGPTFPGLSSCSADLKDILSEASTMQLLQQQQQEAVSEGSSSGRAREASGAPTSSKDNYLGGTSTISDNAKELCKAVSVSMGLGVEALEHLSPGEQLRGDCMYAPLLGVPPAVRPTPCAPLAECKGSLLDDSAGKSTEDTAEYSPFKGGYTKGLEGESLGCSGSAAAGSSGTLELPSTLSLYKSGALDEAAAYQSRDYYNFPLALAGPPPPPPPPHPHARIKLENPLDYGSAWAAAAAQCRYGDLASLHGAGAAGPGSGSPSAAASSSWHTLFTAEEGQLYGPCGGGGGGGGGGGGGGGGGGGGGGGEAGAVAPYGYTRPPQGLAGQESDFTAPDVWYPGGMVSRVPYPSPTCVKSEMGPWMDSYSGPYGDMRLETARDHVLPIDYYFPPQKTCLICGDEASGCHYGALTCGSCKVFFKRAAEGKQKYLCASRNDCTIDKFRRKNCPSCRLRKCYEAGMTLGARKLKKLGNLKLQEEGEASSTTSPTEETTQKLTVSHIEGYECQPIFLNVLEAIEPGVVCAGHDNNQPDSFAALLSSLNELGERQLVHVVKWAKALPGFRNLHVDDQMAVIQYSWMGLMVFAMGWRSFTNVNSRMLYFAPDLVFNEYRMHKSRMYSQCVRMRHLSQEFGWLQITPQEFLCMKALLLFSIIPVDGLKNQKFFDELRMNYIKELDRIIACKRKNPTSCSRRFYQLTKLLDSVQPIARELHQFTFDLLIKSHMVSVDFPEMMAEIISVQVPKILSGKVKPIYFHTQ
Protocol: (§1) CV-1 cells were cultured on 96 well plates and transfected after 24 hours with the expression and reporter plasmids using the lipofectamine procedure (Invitrogen). In this procedure, the three different plasmid constructs used were mixed in cell culture media and lipofectamine and incubated for 15 minutes according to the manufacturer's instructions (Invitrogen). The plasmid-lipofectamine mixture was diluted in culture medium, added to cells, and incubated for 4 hours. The cells were rinsed and then treated with culture media. Twenty-four hours after transfection, the cells were treated with androgen agonists and antagonists or vehicle. After 18 hours, cell lysates were harvested and assayed for luciferase activity using luciferase reagent (Promega) and a luminometer (Wallac). Other known transfection techniques can be used including, for example, calcium phosphate precipitation transfection technique.
(§2) Cell lysates were harvested and analyzed for luciferase activity.
(§3) CV-1 cells were transfected with the 5XGAL4-luciferase reporter and the GAL4-O-catenin expression plasmid in the absence of a nuclear receptor expression vector (−), with the AR, PR, or ER expression plasmid. […] Cell lysates were harvested and analyzed for luciferase activity.
as §2

[3] = test system: estrogen receptor (ER) interaction with β-catenin; assay: One-hybrid GAL4-β-catenin luciferase reporter assay in CV-1 cells with ER expression plasmid; format: cell-based; settings: 10 nM, 18 hours
Protocol: as §1, §3

[4] = target: T3, progesterone receptor (PR) interaction with β-catenin (Homo sapiens, UniProt P06401); assay: One-hybrid GAL4-β-catenin luciferase reporter assay in CV-1 cells with PR expression plasmid; format: cell-based; settings: 10 nM, 18 hours
T3 construct: expressed in transfected cells; host or cells: CV-1 cells
T3 sequence (P06401 1-933): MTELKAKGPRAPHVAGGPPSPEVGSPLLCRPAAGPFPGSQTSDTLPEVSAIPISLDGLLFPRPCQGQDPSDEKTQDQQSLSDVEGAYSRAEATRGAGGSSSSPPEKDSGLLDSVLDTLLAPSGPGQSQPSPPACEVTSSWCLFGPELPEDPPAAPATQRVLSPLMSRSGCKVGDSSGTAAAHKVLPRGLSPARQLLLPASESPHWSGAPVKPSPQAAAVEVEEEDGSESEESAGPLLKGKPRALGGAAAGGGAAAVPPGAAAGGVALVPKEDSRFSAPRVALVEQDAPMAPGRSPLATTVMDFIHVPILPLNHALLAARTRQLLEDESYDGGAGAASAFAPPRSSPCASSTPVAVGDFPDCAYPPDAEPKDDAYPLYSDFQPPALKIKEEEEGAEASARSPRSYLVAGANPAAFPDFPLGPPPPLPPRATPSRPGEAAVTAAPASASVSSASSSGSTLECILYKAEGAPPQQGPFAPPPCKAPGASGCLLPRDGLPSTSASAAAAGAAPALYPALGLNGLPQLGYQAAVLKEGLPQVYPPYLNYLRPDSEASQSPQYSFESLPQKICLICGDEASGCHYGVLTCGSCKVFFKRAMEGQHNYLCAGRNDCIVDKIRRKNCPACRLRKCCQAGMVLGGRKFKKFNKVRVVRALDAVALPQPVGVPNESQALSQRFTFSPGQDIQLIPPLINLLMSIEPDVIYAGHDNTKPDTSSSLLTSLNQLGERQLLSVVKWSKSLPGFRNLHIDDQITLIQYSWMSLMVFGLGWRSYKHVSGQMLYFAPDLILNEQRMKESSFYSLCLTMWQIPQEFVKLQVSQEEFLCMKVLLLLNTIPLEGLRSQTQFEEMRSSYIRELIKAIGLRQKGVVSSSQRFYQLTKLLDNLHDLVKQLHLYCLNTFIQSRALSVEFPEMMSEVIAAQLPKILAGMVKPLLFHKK
Protocol: as §1, §3

Row | Structure (SMILES) | effect on DHT-stimulated AR/β-catenin protein-protein interaction [1] | reporter (luciferase) activity [2] | activity in the one-hybrid assay (reporter activity) [3] | activity in the one-hybrid assay (reporter activity) [4]
1 | CC(C)(O)C(=O)Nc1ccc([N+](=O)[O-])c(C(F)(F)F)c1 [hydroxyflutamide] | attenuated | – | – | –
2 | C[C@H](O)C(=O)[C@@]1(C)CC[C@H]2[C@@H]3CCC4=CC(=O)CCC4=C3CC[C@@]21C [trimegestone] | – | not | no activity | no activity
3 | C[C@]12CC[C@@H]3c4ccc(O)cc4CC[C@H]3[C@@H]1CC[C@@H]2O [17β-estradiol] | – | – | no activity | no activity
4 | C[C@]12CCC(=O)C[C@@H]1CC[C@@H]1[C@@H]2CC[C@]2(C)[C@@H](O)CC[C@@H]12 [DHT, dihydrotestosterone] | – | – | no activity | no activity
